This note sets out measurements from US20250250647A1, “STABLE CELL CLONES HARBORING REPLICATING SARS-COV-2 RNA” (priority 2021, published 2025).

Each structure is given as a SMILES string.

The assay concerns SARS-CoV-2-Rep-NanoLuc-Neo-Nsp1^K164A/H165A replicon. The class given is cell-based. To be noted: read-out: IC50, mean over stable replicon clones.

As for `CC(C)C[C@H](NC(=O)OCc1ccccc1)C(=O)N[C@@H](CC1CCNC1=O)C(O)S(=O)(=O)O` (stereo partly shown) [GC376], the IC50 was 9.3 µM.
